Results: US5116855A, “Rhodanine derivatives and pharmaceutical compositions” (Nisshin Flour Milling Co., Ltd., priority 1989, dated 1992)

Biological target: T1, aldose reductase (Rattus norvegicus, UniProt P07943)
T1 construct: the lenses were excised and homogenized in cold distilled water; from tissue; host or cells: lens of male SD rats, homogenate supernatant (crude enzyme)
Assay: Inhibitory activity against aldose reductase (crude enzyme from rat lenses, NADPH oxidation at 340 nm, D,L-glyceraldehyde substrate)
Type: biochemical
Conditions: aldose reductase from SD rat lenses, pH 6.2, 30° C.; for inhibition at 10 µM: pH 6.2, 10^-5 M; for inhibition at 10 µM / inhibition at 1 µM: read-out: Percentage of inhibition (%); for inhibition at 1 µM: pH 6.2, 10^-6 M
Description: The compounds of the present invention were evaluated for the inhibitory activity against aldose reductase according to the following assay procedure.
Enzyme activity was assayed according to the modification [Biochemical Pharmacology, 25, 2505 (1976)] of the method described in J. Biol. Chem., 240, 877-882 (1965).
SD strain male rats were sacrificed by decapitation, the lenses were excised and homogenized in cold distilled water. The homogenate was then centrifuged and the supernatant was used as the crude aldose reductase solution.
Separately, a 0.1 M sodium phosphate buffer (pH 6.2) containing 0.4 M ammonium sulfate was prepared at 30° C. In this buffer were dissolved the present compound, the crude aldose reductase solution and nicotinamide-adenine dinucleotide phosphate, reduced form (NADPH). The mixture was preincubated at 30° C. for 3 minutes and the reaction was initiated by addition of D,L-glyceraldehyde. In this case, the concentration of the present compound dissolved was 10^-5 M and 10^-6 M, respectively. The total amount of the assay mixture was 1.0 ml, containing 0.16 mM of NADPH, 10 mM of D,L-glyceraldehyde and 0.010-0.016 units of aldose reductase.
The inhibitory activity of the present compounds against aldose reductase was measured using each 1.0 ml of the reaction mixture containing the present compound in the above concentration. In this measurement, the rate of NADPH oxidation was followed by recording the decrease in absorbance at 340 nm. The inhibitory activity of the present compounds against aldose reductase as measured was expressed in percentage of inhibition (%) as a relative activity based on a control value.

Percentage of inhibition (%) (10^-5 M)	inhibition at 10 µM	Percentage of inhibition (%) (10^-6 M)	inhibition at 1 µM	Compound
	92.9%		85.7%	CC(C=Cc1cc(C(F)(F)F)ccc1OCC(=O)O)=C1SC(=S)NC1=O [Example 89, 4-Trifluoromethyl-2-[3-(4-oxo-2-thioxo-5-thiazolinylidene)-1-butenyl]phenoxyacetic acid]
	82.8%		41.4%	CC(C=Cc1cc(C(C)C)c(OCC(=O)O)c(C(C)C)c1)=C1SC(=S)NC1=O [Example 77, 2,6-Diisopropyl-4-[3-(4-oxo-2-thioxo-5-thiazolinylidene)-1-butenyl]phenoxyacetic acid]
	95.3%		87.6%	CC(C=Cc1cc(Cl)ccc1OCC(=O)O)=C1SC(=S)NC1=O [Example 75, 4-Chloro-2-[3-(4-oxo-2-thioxo-5-thiazolinylidene)-1-butenyl]phenoxyacetic acid]
	93.3%		79.1%	COc1ccc(OCC(=O)O)c(C=CC(C)=C2SC(=S)NC2=O)c1 [Example 88, 4-Methoxy-2-[3-(4-oxo-2-thioxo-5-thiazolinylidene)-1-butenyl]phenoxyacetic acid]
	54.2%		33.8%	COC(=O)COc1ccc(C=CC(C)=C2SC(=S)NC2=O)cc1OC [Example 42, Methyl 2-methoxy-4-[3-(4-oxo-2-thioxo-5-thiazolinylidene)-1-butenyl]phenoxyacetate]
	71.3%		32%	CCOC(=O)COc1ccc(C=C(C)C=C2SC(=S)NC2=O)cc1OC [Example 53, Ethyl 2-methoxy-4-[2-methyl-3-(4-oxo-2-thioxo-5-thiazolinylidene)-1-propenyl]phenoxyacetate]
	79.9%		45.6%	COC(=O)COc1ccc(C(F)(F)F)cc1C=CC(C)=C1SC(=S)NC1=O [Example 66, Methyl 4-trifluoromethyl-2-[3-(4-oxo-2-thioxo-5-thiazolinylidene)-1-butenyl]phenoxyacetate]
	89.6%		60.5%	CC(C=Cc1cc(C)c(OCC(=O)O)c(C)c1)=C1SC(=S)NC1=O [Example 87, 2,6-Dimethyl-4-[3-(4-oxo-2-thioxo-5-thiazolinylidene)-1-butenyl]phenoxyacetic acid]
89.7%		69.6%		CC(=Cc1ccccc1OCC(=O)O)C=C1SC(=S)NC1=O [Example 86, 2-[2-Methyl-3-(4-oxo-2-thioxo-5-thiazolinylidene)-1-propenyl]phenoxyacetic acid]
	56.4%			CC(CCCC(=O)Nc1ccccc1C(=O)O)=C1SC(=S)NC1=O [Example 37, N-[5-(4-Oxo-2-thioxo-5-thiazolidinylidene)hexanoyl]anthranilic acid]
	87.4%		62.2%	CCOc1cc(C=CC(C)=C2SC(=S)NC2=O)ccc1OCC(=O)O [Example 70]
	74.3%			COc1cc(C=CC(C)=C2SC(=S)NC2=O)cc(OC)c1OCC(=O)O [Example 74, 2,6-Dimethoxy-4-[3-(4-oxo-2-thioxo-5-thiazolinylidene)-1-butenyl]phenoxyacetic acid]
	86.6%		43%	CC(C=Cc1cc(Cl)cc(Cl)c1OCC(=O)O)=C1SC(=S)NC1=O [Example 80, 2,4-Dichloro-6-[3-(4-oxo-2-thioxo-5-thiazolinylidene)-1-butenyl]phenoxyacetic acid]
	48.9%		26.1%	CCOC(=O)COc1ccc(CCC(C)=C2SC(=S)NC2=O)cc1OC [Example 43, Ethyl 2-methoxy-4-[3-(4-oxo-2-thioxo-5-thiazolinylidene)butyl]phenoxyacetate]
	92%		77.6%	CCCC(=Cc1ccccc1OCC(=O)O)C=C1SC(=S)NC1=O [Example 84, 2-[2-Propyl-3-(4-oxo-2-thioxo-5-thiazolinylidene)-1-propenyl]phenoxyacetic acid]

Continued, compound first:

Compound	Percentage of inhibition (%) (10^-5 M)	inhibition at 10 µM	Percentage of inhibition (%) (10^-6 M)	inhibition at 1 µM
CCCCOC(=O)COc1ccc(Cl)cc1C=CC(C)=C1SC(=S)NC1=O (single isomer, unassigned) [51 Isomer B]	58.7%			
O=C(O)CCC(C=Cc1ccc(C(F)(F)F)cc1)=C1SC(=S)NC1=O (single isomer, unassigned) [Example 23, 6-(4-Trifluoromethylphenyl)-4-(4-oxo-2-thioxo-5-thiazolidinylidene)-5-hexenoic acid]		64.6%		
CCCC(CCc1ccccc1OCC(=O)O)=C1SC(=S)NC1=O (single isomer, unassigned) [27 Isomer B]	83.8%		45.9%	
CCCCOC(=O)COc1ccc(Cl)cc1C=CC(C)=C1SC(=S)NC1=O (single isomer, unassigned) [51 Isomer A]		51.4%		
CCOC(=O)CCC(C=Cc1ccc(C(=O)OC)cc1)=C1SC(=S)NC1=O [Example 12, Ethyl 6-(4-methoxycarbonylphenyl)-4-(4-oxo-2-thioxo-5-thiazolidinylidene)-5-hexenoate]		42.8%		
CCOC(=O)CCC(C=Cc1ccc(C(F)(F)F)cc1)=C1SC(=S)NC1=O (single isomer, unassigned) [6 Isomer A]		35%		
CCOC(=O)COc1ccc(C=CC(C)=C2SC(=S)N(C)C2=O)cc1OC (single isomer, unassigned) [55 Isomer B]	47.5%		24.3%	
CCOC(=O)CCC(C=Cc1ccc(C#N)cc1)=C1SC(=S)NC1=O [Example 7, Ethyl 6-(4-cyanophenyl)-4-(4-oxo-2-thioxo-5-thiazolidinylidene)-5-hexenoate]		50.9%		
COC(=O)c1ccccc1NC(=O)C(C)=C1SC(=S)NC1=O [Example 18, Methyl N-[2-(4-oxo-2-thioxo-5-thiazolidinylidene)propionyl]anthranilate]		84%		62.6%
CCCCCCC(CCc1ccc(CCC(=O)O)cc1)=C1SC(=S)NC1=O (single isomer, unassigned) [33 Isomer A]		42.9%		
COc1ccc(C=CC(CCCC(=O)O)=C2SC(=S)NC2=O)cc1OC (single isomer, unassigned) [38 Isomer A]		95.7%		86.8%
Ethyl 4-[3-(4-oxo-2-thioxo-5-thiazolidinylidene)-1-butenyl]-methoxyphenoxyacetate [Example 15]	66.7%		35.3%	
CCOC(=O)CCC(C=Cc1ccc(OC)c(OC)c1)=C1SC(=S)NC1=O [Example 2, Ethyl 6-(3,4-dimethoxyphenyl)-4-(4-oxo-2-thioxo-5-thiazolidinylidene)-5-hexenoate]		72%		48.6%
CC(C(=O)Nc1ccccc1C(=O)O)=C1SC(=S)NC1=O [Example 36, N-[2-(4-Oxo-2-thioxo-5-thiazolidinylidene)propionyl]anthranilic acid]		94%		80%
COc1ccc(C=CC(CCCC(=O)O)=C2SC(=S)NC2=O)cc1OC (single isomer, unassigned) [38 Isomer B]	94.5%		77.9%	
COC(=O)COc1ccc(C(C)C)cc1C=CC(C)=C1SC(=S)NC1=O (single isomer, unassigned) [62 Isomer B]	66.7%			
O=C(O)CCC(C=Cc1ccco1)=C1SC(=S)NC1=O [Example 35, 6-(2-Furyl)-4-(4-oxo-2-thioxo-5-thiazolidinylidene)-5-hexenoic acid]		72.3%		
COC(=O)c1ccccc1NC(=O)CCCC(C)=C1SC(=S)NC1=O [Example 19, Methyl N-[5-(4-oxo-2-thioxo-5-thiazolidinylidene)hexanoyl]anthranilate]		34.6%		
Cc1ccsc1C=CC(CCC(=O)O)=C1SC(=S)NC1=O [Example 31, 6-(3-Methyl-2-thienyl)-4-(4-oxo-2-thioxo-5-thiazolidinylidene)-5-hexenoic acid]		83.6%		39.8%
CCCCCCC(C=Cc1ccc(C(=O)O)cc1)=C1SC(=S)NC1=O (single isomer, unassigned) [26 Isomer A]	92.0%			68.9%
COC(=O)COc1ccc(C=CC(C)=C2SC(=S)NC2=O)cc1OCC(=O)OC (single isomer, unassigned) [60 Isomer A]		61.5%		27.7%
COc1cc(C=CC(C)=C2SC(=S)NC2=O)ccc1OCC(=O)O [Example 32, 4-[3-(4-Oxo-2-thioxo-5-thiazolidinylidene)-1-butenyl]-2-methoxyphenoxyacetic acid]		92.5%		84.7%
CCOC(=O)CCC(C=Cc1cccc(O)c1)=C1SC(=S)NC1=O (single isomer, unassigned) [8 Isomer B]	43.1%			
